# Reference: patent publication US11154530B2, “Pharmaceutical composition for treating liver cancer, comprising tetraarsenic hexoxide crystalline polymorph” (CHEMAS CO., LTD., priority 2016, dated 2021)
# Tests used:
# [1] = In vivo efficacy test in mice transplanted with H22 cells; conditions: ICR mice with H22 cells
# Method: (§1) Human liver cancer cell line H22 cells (purchased from the Shanghai Cell Bank of Chinese Academy of Sciences) were incubated in RPMI-1640 medium supplemented with 10% FBS, 100 U/ml penicillin, and 100 μg/ml streptomycin in an incubator under conditions of 37° C., 5% CO2, and 95% air. The medium was exchanged every three days.
# (§2) The mice were allowed free access to food and water, and were bred in a 12-hr light/12-hr dark cycle.
# (§3) Out of the 50 mice, 10 mice were classified as the normal group, and the remaining 40 animals were subcutaneously inoculated with H22 cells at 1×10^7 cells per mouse, and bred for 7 days. […] 5-Fluorouracil (5-FU), which is used as an anticancer drug, was treated for a positive control group.
# (§4) After the administration of the drug for each group, cancer sizes were measured daily using a Vernier caliper, and cancer volumes were calculated using the equation V=0.5×ab^2 (a is the longest diameter of cancer and b is the shortest diameter of cancer). In addition, the inhibition of cancer volume according to the number of days of administration was calculated by the following equation. Percentage of inhibition of cancer growth=(1−(sample treatment group/cancer model group))×100
# [2] = tested on: human liver cancer cell line H22 cells; assay: as above; conditions: from cancer volume vs cancer model group
# Method: as §1, §2, §3, §4
# [3] = tested on: human liver cancer cell line SMMC-7721 cells; assay: In vivo efficacy test in mice transplanted with SMMC-7721 cells; conditions: for Cancer weight: babl/c-nu mice with SMMC-7721 cells; for Percentage (%) of inhibition of cancer growth: from cancer weight vs cancer model group
# Method: as §1, with “SMMC-7721” for “H22”, “50” for “100”
# as §2
# The twenty five mice were subcutaneously inoculated into the neck site with SMMC-7721 cells at 2×10^7 cells per mouse, and bred for 7 days. […] 5-Fluorouracil (5-FU), which is used as an anticancer drug, was treated for a positive control group.
# Cancer tissues were isolated from the mice after seven days of administration of the drug for each group, and visually observed. Cancer weights were measured. In addition, the inhibition of cancer growth was calculated on the basis of the measured weights of the cancer tissues by using the following equation. Percentage of inhibition of cancer growth=(1−(sample treatment group/cancer model group))×100
# [4] = tested on: human liver cancer cells SMMC-7721; assay: MTT cell proliferation assay, SMMC-7721 cells; format: cell-based
# Method: (§5) Fetal bovine serum (FBS) and cell culture medium were prepared (Hyclone), and dimethyl sulfoxide (DMSO) and 3-(4,5-dimethyl-thiazol-2yl)-2,5-diphenyltetrazolium bromide (MTT, Amresco LLC, USC) were prepared.
# (§6) As human cancer cell lines, human liver cancer cells SMMC-7721 and HCCLM3 were obtained from the Shanghai Cell Bank of Chinese Academy of Sciences. The SMMC-7721 cells were incubated in RPMI-1640 medium supplemented with 10% FBS, 50 U/ml penicillin, and 50 μg/ml streptomycin and the HCCLM3 cells were incubated in Dulbecco's modified Eagle's medium (DMEM) supplemented with 10% FBS, 100 U/ml penicillin, and 100 μg/ml streptomycin in a humidified incubator with 5% CO2 and 95% air. […]
# (§7) The effects of Example 1 and Comparative Examples 1 to 3 on cell proliferation were assessed using MTT assay. […] All the crystals were completely dissolved by standing at room temperature for 15 minutes, and the absorbance was measured using a micro-plate reader at a wavelength of 570 nm (A570nm).
# (§8) The absorbance value of the control group treated without the sample was calculated as 100, and the absorbance value of the treatment group treated with the sample, compared with that of the control group, was calibrated, and the percentage of inhibition of cell proliferation was calculated according to the following equation. […]
# (§9) All data were expressed as mean±standard error of the mean (mean±SEM). […]
# [5] = tested on: human liver cancer cells HCCLM3; assay: MTT cell proliferation assay, HCCLM3 cells; format: cell-based
# Method: as §5, §6, §7, §8, §9
# [6] = Positive control group, 20 mg/kg oral daily, 5 days
# [7] = Positive control group, 20 mg/kg oral daily, 7 days
# [8] = Positive control group, 20 mg/kg oral daily, 9 days
# [9] = Positive control group, 20 mg/kg oral daily, 11 days
# [10] = Positive control group, 20 mg/kg oral daily for 7 days
# [11] = Test Group 1, 4.5 mg/kg oral daily, 5 days
# [12] = Test Group 1, 4.5 mg/kg oral daily, 7 days
# [13] = Test Group 1, 4.5 mg/kg oral daily, 9 days
# [14] = Test Group 1, 4.5 mg/kg oral daily, 11 days
# [15] = Test Group 2, 2.25 mg/kg oral daily, 5 days
# [16] = Test Group 2, 2.25 mg/kg oral daily, 7 days
# [17] = Test Group 2, 2.25 mg/kg oral daily, 9 days
# [18] = Test Group 2, 2.25 mg/kg oral daily, 11 days
# [19] = Test Group 1, 4.5 mg/kg oral daily for 7 days
# [20] = Test Group 2, 2.25 mg/kg oral daily for 7 days
# [21] = Test Group 3, 1.125 mg/kg oral daily for 7 days
molecule,measurement,setting,value
"O=c1[nH]cc(F)c(=O)[nH]1 [5-Fluorouracil, reference compound]",Cancer volume according to number of days of administration,[1]; [6],165.62 mm^3
same,Cancer volume according to number of days of administration,[1]; [7],212.78 mm^3
same,Cancer volume according to number of days of administration,[1]; [8],318.07 mm^3
same,Cancer volume according to number of days of administration,[1]; [9],661.97 mm^3
same,Percentage (%) of inhibition of cancer growth,[2]; [6],26.16%
same,Percentage (%) of inhibition of cancer growth,[2]; [7],46.73%
same,Percentage (%) of inhibition of cancer growth,[2]; [8],52.15%
same,Percentage (%) of inhibition of cancer growth,[2]; [9],63.48%
same,Cancer weight,[3]; [10],0.72 ± 0.27 g
same,Percentage (%) of inhibition of cancer growth,[3]; [10],32.5%
tetraarsenic hexoxide [Example 1],Percentage of inhibition of SMMC-7721 cell proliferation compared with Comparative Example 1,"[4]; incubation for 48 hours and 72 hours, 0.625-80 μM, FIGS. 2A-B",higher
same,Percentage of inhibition of SMMC-7721 cell proliferation compared with Comparative Example 2 or 3,"[4]; mixtures of Example 1 and Comparative Example 1 at 4:1 or 1:1, FIGS. 2A-B",higher
same,Percentage of inhibition of HCCLM3 cell proliferation compared with Comparative Example 1,"[5]; incubation for 48 hours and 72 hours, 0.625-80 μM, FIGS. 3A-B",higher
same,Percentage of inhibition of HCCLM3 cell proliferation compared with Comparative Example 2 or 3,"[5]; mixtures of Example 1 and Comparative Example 1 at 4:1 or 1:1, FIGS. 3A-B",higher
same,Cancer volume according to number of days of administration,[1]; [11],168.09 mm^3
same,Cancer volume according to number of days of administration,[1]; [12],238.22 mm^3
same,Cancer volume according to number of days of administration,[1]; [13],388.85 mm^3
same,Cancer volume according to number of days of administration,[1]; [14],880.55 mm^3
same,Cancer volume according to number of days of administration,[1]; [15],216.75 mm^3
same,Cancer volume according to number of days of administration,[1]; [16],302.66 mm^3
same,Cancer volume according to number of days of administration,[1]; [17],388.56 mm^3
same,Cancer volume according to number of days of administration,[1]; [18],987.61 mm^3
same,Percentage (%) of inhibition of cancer growth,[2]; [11],25.06%
same,Percentage (%) of inhibition of cancer growth,[2]; [12],40.36%
same,Percentage (%) of inhibition of cancer growth,[2]; [13],41.50%
same,Percentage (%) of inhibition of cancer growth,[2]; [14],51.42%
same,Percentage (%) of inhibition of cancer growth,[2]; [15],3.36%
same,Percentage (%) of inhibition of cancer growth,[2]; [16],24.23%
same,Percentage (%) of inhibition of cancer growth,[2]; [17],41.54%
same,Percentage (%) of inhibition of cancer growth,[2]; [18],45.52%
same,Cancer weight,[3]; [19],0.65 ± 0.17 g
same,Percentage (%) of inhibition of cancer growth,[3]; [19],39.7%
same,Cancer weight,[3]; [20],0.70 ± 0.10 g
same,Percentage (%) of inhibition of cancer growth,[3]; [20],34.3%
same,Cancer weight,[3]; [21],0.77 ± 0.12 g
same,Percentage (%) of inhibition of cancer growth,[3]; [21],28.0%
same,Tumor tissue sizes (visual observation),"[3]; isolated cancer tissues after 7 days of oral administration, FIG. 6",reduced
